Where “and” joins values, the source holds several entries; their conditions need not be identical. Equal entries are not always repeated. Where a SMILES comes first, the peptide text is derived from it. The star is where a group is joined. Cbz = O=C(OCc1ccccc1)*
How the values were obtained:
Assay in all cases: cells
[1] = tested on: COLO-800; assay type: functional, cell-based, Homo sapiens;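 further: growth inhibition of COLO-800 cells, read out with a cell viability assay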
Description: SANGER: Inhibition of human COLO-800 cell growth in a cell viability assay.

[2] = tested on: COR-L88; assay type: functional, cell-based, Homo sapiens;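 further: growth inhibition of COR-L88 cells, read out with a cell viability assay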
Description: SANGER: Inhibition of human COR-L88 cell growth in a cell viability assay.

[3] = tested on: CTV-1; assay type: functional, cell-based, Homo sapiens;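 further: growth inhibition of the cell line, read out with a cell viability assay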
Description: SANGER: Inhibition of human CTV-1 cell growth in a cell viability assay.

[4] = tested on: D-502MG; assay type: functional, cell-based, Homo sapiens
Description: SANGER: Inhibition of human D-502MG cell growth in a cell viability assay.

[5] = tested on: EM-2; assay type: functional, cell-based, Homo sapiens;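 further: growth inhibition of EM-2 cells, read out with a cell viability assay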
Description: SANGER: Inhibition of human EM-2 cell growth in a cell viability assay.

[6] = tested on: ETK-1; assay type: functional, cell-based, Homo sapiens;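 further: growth inhibition of human ETK-1 cells, read out with a cell viability assay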
Description: SANGER: Inhibition of human ETK-1 cell growth in a cell viability assay.

[7] = tested on: EW-18; assay type: functional, cell-based, Homo sapiens; settings: read-out: IC50;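 further: growth inhibition of EW-18 cells, read out by a cell viability assay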
Description: SANGER: Inhibition of human EW-18 cell growth in a cell viability assay.

[8] = tested on: GI-1; assay type: functional, cell-based, Homo sapiens;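 further: growth inhibition of human GI-1 cells, measured with a cell viability readout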
Description: SANGER: Inhibition of human GI-1 cell growth in a cell viability assay.

[9] = tested on: GI-ME-N; assay type: functional, cell-based, Homo sapiens;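 further: growth inhibition of human GI-ME-N cells, read out with a cell viability assay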
Description: SANGER: Inhibition of human GI-ME-N cell growth in a cell viability assay.

[10] = tested on: HCC1187; assay type: functional, cell-based, Homo sapiens;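 further: growth inhibition of HCC1187 cells, read out with a cell viability assay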
Description: SANGER: Inhibition of human HCC1187 cell growth in a cell viability assay.

[11] = tested on: HCE-T; assay type: functional, cell-based, Homo sapiens;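 further: cell viability assay read-out, reporting inhibition of HCE-T cell growth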
Description: SANGER: Inhibition of human HCE-T cell growth in a cell viability assay.

[12] = tested on: HDLM-2; assay type: functional, cell-based, Homo sapiens;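 further: cell viability assay measuring suppression of HDLM-2 proliferation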
Description: SANGER: Inhibition of human HDLM-2 cell growth in a cell viability assay.

[13] = tested on: IST-SL1; assay type: functional, cell-based, Homo sapiens;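 further: growth inhibition of human IST-SL1 cells, read out with a cell viability assay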
Description: SANGER: Inhibition of human IST-SL1 cell growth in a cell viability assay.

[14] = tested on: J-RT3-T3-5; assay type: functional, cell-based, Homo sapiens;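 further: cell viability assay measuring growth inhibition of human J-RT3-T3-5 cells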
Description: SANGER: Inhibition of human J-RT3-T3-5 cell growth in a cell viability assay.

[15] = tested on: KG-1; assay type: functional, cell-based, Homo sapiens;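 further: growth inhibition of KG-1 cells, read out by a cell viability assay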
Description: SANGER: Inhibition of human KG-1 cell growth in a cell viability assay.

[16] = tested on: KGN; assay type: functional, cell-based, Homo sapiens;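 further: growth inhibition of KGN cells, read out with a cell viability assay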
Description: SANGER: Inhibition of human KGN cell growth in a cell viability assay.

[17] = tested on: KM12; assay type: functional, cell-based, Homo sapiens;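 further: KM12 cell growth inhibition, read out with a cell viability assay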
Description: SANGER: Inhibition of human KM12 cell growth in a cell viability assay.

[18] = tested on: KU812 cell line; assay type: functional, cell-based, Homo sapiens;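 further: growth inhibition of KU812 cells, read out with a cell viability assay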
Description: SANGER: Inhibition of human KU812 cell growth in a cell viability assay.

[19] = tested on: KURAMOCHI; assay type: functional, cell-based, Homo sapiens;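 further: growth inhibition of KURAMOCHI cells, read out with a cell viability assay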
Description: SANGER: Inhibition of human KURAMOCHI cell growth in a cell viability assay.

[20] = tested on: KY821; assay type: functional, cell-based, Homo sapiens;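 further: growth inhibition of human KY821 cells, read out by a cell viability assay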
Description: SANGER: Inhibition of human KY821 cell growth in a cell viability assay.

[21] = tested on: LB2518-MEL; assay type: functional, cell-based; settings: Homo sapiens;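 further: growth inhibition of human LB2518-MEL cells, measured with a cell viability assay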
Description: SANGER: Inhibition of human LB2518-MEL cell growth in a cell viability assay.

[22] = tested on: LXF-289 cell line; assay type: functional, cell-based; settings: Homo sapiens
Description: SANGER: Inhibition of human LXF-289 cell growth in a cell viability assay.

[23] = tested on: MMAC-SF; assay type: functional, cell-based; settings: Homo sapiens;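 further: growth inhibition of human MMAC-SF cells, read out with a cell viability assay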
Description: SANGER: Inhibition of human MMAC-SF cell growth in a cell viability assay.

[24] = tested on: MN-60; assay type: functional, cell-based, Homo sapiens;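 further: growth inhibition of the MN-60 cell line, determined with a cell viability assay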
Description: SANGER: Inhibition of human MN-60 cell growth in a cell viability assay.

[25] = tested on: MS-1; assay type: functional, cell-based, Homo sapiens;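 further: growth inhibition of MS-1 cells, read out by cell viability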
Description: SANGER: Inhibition of human MS-1 cell growth in a cell viability assay.

[26] = tested on: MZ7-mel; assay type: functional, cell-based, Homo sapiens;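 further: growth inhibition of human MZ7-mel cells, measured by a cell viability assay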
Description: SANGER: Inhibition of human MZ7-mel cell growth in a cell viability assay.

[27] = tested on: NB5; assay type: functional, cell-based, Homo sapiens;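 further: growth inhibition of NB5 cells, read out as cell viability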
Description: SANGER: Inhibition of human NB5 cell growth in a cell viability assay.

[28] = tested on: NCI-H1355; assay type: functional, cell-based, Homo sapiens;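 further: growth inhibition of human NCI-H1355 cells, read out by a cell viability assay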
Description: SANGER: Inhibition of human NCI-H1355 cell growth in a cell viability assay.

[29] = tested on: NCI-H226; assay type: functional, cell-based, Homo sapiens;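 further: cell viability read-out used to gauge growth inhibition of the cells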
Description: SANGER: Inhibition of human NCI-H226 cell growth in a cell viability assay.

[30] = tested on: NCI-N87; assay type: functional, cell-based; settings: Homo sapiens;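 further: growth inhibition of human NCI-N87 cells, read out with a cell viability assay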
Description: SANGER: Inhibition of human NCI-N87 cell growth in a cell viability assay.

[31] = tested on: NTERA-2-cl-D1; assay type: functional, cell-based, Homo sapiens;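 further: inhibition of cell growth, measured with a cell viability assay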
Description: SANGER: Inhibition of human NTERA-S-cl-D1 cell growth in a cell viability assay.

[32] = tested on: OCI-AML2; assay type: functional, cell-based, Homo sapiens;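 further: growth inhibition of OCI-AML2 cells, read out with a cell viability assay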
Description: SANGER: Inhibition of human OCI-AML2 cell growth in a cell viability assay.

[33] = tested on: OCUB-M; assay type: functional, cell-based; settings: Homo sapiens;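 further: growth inhibition of the cancer cell line, read out through a cell viability assay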
Description: SANGER: Inhibition of human OCUB-M cell growth in a cell viability assay.

[34] = tested on: OVCAR-4; assay type: functional, cell-based, Homo sapiens;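 further: growth inhibition of human OVCAR-4 cells, measured with a cell viability assay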
Description: SANGER: Inhibition of human OVCAR-4 cell growth in a cell viability assay.

[35] = tested on: P31-FUJ; assay type: functional, cell-based, Homo sapiens;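 further: growth inhibition of P31-FUJ cells, read out with a viability assay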
Description: SANGER: Inhibition of human P31-FUJ cell growth in a cell viability assay.

[36] = tested on: QIMR-WIL; assay type: functional, cell-based, Homo sapiens;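 further: growth inhibition of QIMR-WIL cells, read out with a cell viability assay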
Description: SANGER: Inhibition of human QIMR-WIL cell growth in a cell viability assay.

[37] = tested on: RXF 393; assay type: functional, cell-based, Homo sapiens;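 further: growth inhibition of human RXF 393 cells, read out with a cell viability assay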
Description: SANGER: Inhibition of human RXF393 cell growth in a cell viability assay.

[38] = tested on: Ramos-2G6-4C10; assay type: functional, cell-based, Homo sapiens;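 further: growth inhibition of the cell line, measured by a cell viability read-out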
Description: SANGER: Inhibition of human Ramos-2G6-4C10 cell growth in a cell viability assay.

[39] = tested on: SH-4; assay type: functional, cell-based; settings: Homo sapiens;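 further: growth inhibition of SH-4 cells, read out with a cell viability assay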
Description: SANGER: Inhibition of human SH-4 cell growth in a cell viability assay.

[40] = tested on: SNB-75; assay type: functional, cell-based, Homo sapiens;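 further: cell viability assay measuring growth inhibition of human SNB-75 cells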
Description: SANGER: Inhibition of human SNB75 cell growth in a cell viability assay.

[41] = tested on: SW 962; assay type: functional, cell-based, Homo sapiens;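 further: growth inhibition of human SW962 cells, read out by a cell viability assay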
Description: SANGER: Inhibition of human SW962 cell growth in a cell viability assay.

[42] = tested on: A4-Fuk; assay type: functional, cell-based, Homo sapiens;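 further: growth inhibition of A4-Fuk cells, read out by a cell viability assay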
Description: SANGER: Inhibition of human A4-Fuk cell growth in a cell viability assay.

[43] = tested on: U-266; assay type: functional, cell-based, Homo sapiens
Description: SANGER: Inhibition of human U-266 cell growth in a cell viability assay.

[44] = tested on: UACC-257; assay type: functional, cell-based, Homo sapiens
Description: SANGER: Inhibition of human UACC-257 cell growth in a cell viability assay.

[45] = tested on: no-11; assay type: functional, cell-based, Homo sapiens;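 further: growth inhibition of human NO-11 cells, read out with a cell viability assay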
Description: SANGER: Inhibition of human no-11 cell growth in a cell viability assay.

[46] = tested on: COLO-668; assay type: functional, cell-based, Homo sapiens
Description: SANGER: Inhibition of human COLO-668 cell growth in a cell viability assay.

[47] = tested on: GAK; assay type: functional, cell-based, Homo sapiens; settings: gak;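 further: cell growth inhibition read out by a cell viability assay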
Description: SANGER: Inhibition of human GAK cell growth in a cell viability assay.

[48] = tested on: HCE-4; assay type: functional, cell-based; settings: Homo sapiens;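 further: cell viability assay measuring inhibition of growth in the human HCE-4 cell line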
Description: SANGER: Inhibition of human HCE-4 cell growth in a cell viability assay.

[49] = tested on: IA-LM; assay type: functional, cell-based; settings: Homo sapiens;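 further: cell viability assay measuring growth inhibition of human IA-LM cells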
Description: SANGER: Inhibition of human IA-LM cell growth in a cell viability assay.

[50] = tested on: KLE; assay type: functional, cell-based; settings: Homo sapiens;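 further: growth inhibition of human KLE cells, read out with a cell viability assay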
Description: SANGER: Inhibition of human KLE cell growth in a cell viability assay.

[51] = tested on: SNU-C2B; assay type: functional, cell-based; settings: Homo sapiens;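 further: cell viability readout used to measure compound-driven suppression of SNU-C2B cell proliferation, IC50 marking half-maximal growth inhibition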
Description: SANGER: Inhibition of human SNU-C2B cell growth in a cell viability assay.

`CC(C)C[C@H](NC(=O)[C@H](Cc1ccccc1)NC(=O)c1cnccn1)B(O)O` [BORTEZOMIB] was tested, and the IC50 ([1]; Homo sapiens, COLO-800) was 0.0176 µM, the IC50 ([2]; Homo sapiens, COR-L88) was 0.00347 µM and the IC50 ([3]; Homo sapiens, CTV-1) was 0.0028 µM. The IC50 ([4]; Homo sapiens, D-502MG) was 0.00637 µM, the IC50 ([5]; Homo sapiens, EM-2) was 0.00116 µM and the IC50 ([6]; Homo sapiens, ETK-1) was 0.00284 µM. The IC50 ([7]; Homo sapiens, EW-18) was 0.018 µM, the IC50 ([8]; Homo sapiens, GI-1) was 0.000764 µM and the IC50 ([9]; Homo sapiens, GI-ME-N) was 0.000634 µM. It also gave an IC50 ([10]; Homo sapiens, HCC1187) of 0.00354 µM, an IC50 ([11]; Homo sapiens, HCE-T) of 0.000439 µM and an IC50 ([12]; Homo sapiens, HDLM-2) greater than 0.02 µM. It also gave an IC50 ([13]; Homo sapiens, IST-SL1) of 0.00468 µM, an IC50 ([14]; Homo sapiens, J-RT3-T3-5) greater than 0.02 µM and an IC50 ([15]; Homo sapiens, KG-1) of 0.00794 µM. It also gave an IC50 ([16]; Homo sapiens, KGN) of 0.00215 µM, an IC50 ([17]; Homo sapiens, KM12) of 0.00127 µM and an IC50 ([18]; Homo sapiens, KU812) of 0.00242 µM. The IC50 ([19]; Homo sapiens, KURAMOCHI) was 0.00172 µM, the IC50 ([20]; Homo sapiens, KY821) was greater than 0.02 µM and the IC50 [21] was 0.000425 µM. It also gave an IC50 [22] of 0.000269 µM, an IC50 [23] of 0.000216 µM and an IC50 ([24]; Homo sapiens, MN-60) of 0.00814 µM. For the same compound, the IC50 ([25]; Homo sapiens, MS-1) was greater than 0.02 µM, the IC50 ([26]; Homo sapiens, MZ7-mel) was 0.00109 µM and the IC50 ([27]; Homo sapiens, NB5) was 0.00227 µM. It also gave an IC50 ([28]; Homo sapiens, NCI-H1355) of 0.000895 µM, an IC50 ([29]; Homo sapiens, NCI-H226) greater than 0.02 µM and an IC50 [30] greater than 0.02 µM. The IC50 ([31]; Homo sapiens, NTERA-2-cl-D1) was 0.000243 µM, the IC50 ([32]; Homo sapiens, OCI-AML2) was greater than 0.02 µM and the IC50 [33] was 0.000447 µM. The IC50 ([34]; Homo sapiens, OVCAR-4) was 0.000289 µM, the IC50 ([35]; Homo sapiens, P31-FUJ) was greater than 0.02 µM and the IC50 ([36]; Homo sapiens, QIMR-WIL) was 0.000889 µM. For the same compound, the IC50 ([37]; Homo sapiens, RXF 393) was 0.000914 µM, the IC50 ([38]; Homo sapiens, Ramos-2G6-4C10) was 0.000693 µM and the IC50 [39] was 0.000173 µM. The IC50 ([40]; Homo sapiens, SNB-75) was 0.000912 µM, the IC50 ([41]; Homo sapiens, SW 962) was 0.00521 µM and the IC50 ([42]; Homo sapiens, A4-Fuk) was 0.000623 µM. It also gave an IC50 ([43]; Homo sapiens, U-266) of 0.00176 µM, an IC50 ([44]; Homo sapiens, UACC-257) of 0.00071 µM and an IC50 ([45]; Homo sapiens) of 0.00355 µM. It also gave an IC50 ([46]; Homo sapiens, COLO-668) greater than 0.02 µM.

Compound `CC(C)C[C@@H](C=O)NC(=O)[C@H](CC(C)C)NC(=O)[C@H](CC(C)C)NC(=O)OCc1ccccc1` [MG-132] (Cbz-Leu-Leu-Leu-aldehyde) has an IC50 ([1]; colo-800) greater than 1 µM, an IC50 ([2]; cor-l88) greater than 1 µM and an IC50 ([3]; ctv-1) greater than 1 µM. The IC50 ([4]; d-502mg) was greater than 1 µM, the IC50 ([5]; em-2) was > 1 µM and 0.878 µM and the IC50 ([6]; Homo sapiens, ETK-1) was greater than 1 µM. For the same compound, the IC50 ([6]; etk-1) was greater than 1 µM, the IC50 ([7]; ew-18) was greater than 1 µM and the IC50 [47] was 0.205 µM and > 1 µM. The IC50 ([8]; gi-1) was greater than 1 µM, the IC50 ([9]; gi-me-n) was 0.193 µM and > 1 µM and the IC50 ([10]; hcc1187) was greater than 1 µM. For the same compound, the IC50 [48] was greater than 1 µM, the IC50 ([11]; hce-t) was greater than 1 µM and the IC50 ([12]; hdlm-2) was greater than 1 µM. The IC50 [49] was greater than 1 µM, the IC50 ([13]; ist-sl1) was 0.201 µM and > 1 µM and the IC50 ([14]; j-rt3-t3-5) was greater than 1 µM. The IC50 ([15]; kg-1) was greater than 1 µM, the IC50 ([16]; Homo sapiens, KGN) was greater than 1 µM and the IC50 ([16]; kgn) was greater than 1 µM. For the same compound, the IC50 [50] was 0.313 µM, the IC50 ([17]; km12) was 0.855 µM and > 1 µM and the IC50 ([18]; Homo sapiens, KU812) was greater than 1 µM. For the same compound, the IC50 ([18]; ku812) was greater than 1 µM, the IC50 ([19]; kuramochi) was greater than 1 µM and the IC50 ([20]; ky821) was greater than 1 µM. For the same compound, the IC50 ([24]; Homo sapiens, MN-60) was greater than 1 µM, the IC50 ([24]; mn-60) was greater than 1 µM and the IC50 ([25]; Homo sapiens, MS-1) was greater than 1 µM. The IC50 ([25]; ms-1) was greater than 1 µM, the IC50 ([26]; mz7-mel) was 0.264 µM and > 1 µM and the IC50 ([27]; nb5) was greater than 1 µM. The IC50 ([28]; nci-h1355) was 0.686 µM and > 1 µM, the IC50 ([29]; Homo sapiens, NCI-H226) was greater than 1 µM and the IC50 ([29]; nci-h226) was greater than 1 µM. The IC50 [30] was greater than 1 µM, the IC50 ([31]; ntera-2-cl-d1) was 0.0577 µM and 0.426 µM and the IC50 ([32]; oci-aml2) was greater than 1 µM. The IC50 ([34]; ovcar-4) was 0.109 µM and > 1 µM, the IC50 ([35]; p31-fuj) was greater than 1 µM and the IC50 ([36]; qimr-wil) was greater than 1 µM. For the same compound, the IC50 ([37]; rxf 393) was 0.25 µM and > 1 µM, the IC50 ([38]; Homo sapiens, Ramos-2G6-4C10) was greater than 1 µM and the IC50 ([38]; ramos-2g6-4c10) was greater than 1 µM. The IC50 ([40]; snb-75) was greater than 1 µM, the IC50 [51] was 0.707 µM and the IC50 ([41]; sw 962) was greater than 1 µM. For the same compound, the IC50 ([42]; a4-fuk) was greater than 1 µM, the IC50 ([43]; u-266) was greater than 1 µM and the IC50 ([44]; uacc-257) was 0.119 µM and > 1 µM. For the same compound, the IC50 [45] was greater than 1 µM, the IC50 ([46]; Homo sapiens, COLO-668) was greater than 1 µM and the IC50 ([46]; colo-668) was greater than 1 µM.

Source: ChEMBL document CHEMBL1201861, “Genomics of Drug Sensitity in Cancer screening data, Wellcome Trust Sanger Institute”
